Experimental data reported in patent US20250325531A1, “TREATMENT OF SYSTOLIC DYSFUNCTION” (MyoKardia, Inc., priority 2024, published 2025).

System: patients with stable HFrEF
Experiment: Safety and tolerability (TEAEs, serum troponin, ECG, Holter) in MAD cohorts, patients with stable HFrEF
Type: in vivo, human
Procedure: During the study, multiple evaluations were performed that included: serial TTE assessments (11-14 TTEs per patient on Days 1, 2, 3, 4, 7, 9, 10 and 11); PK sampling (PK sample collected concomitantly with every post-randomization echocardiogram); ECGs (on Days 2, 3, 4, 7, 9, 10, 11 and 16); troponin (collected concomitantly with every post-randomization ECG); and safety laboratory assessments. Confined patients underwent continuous telemetry. Holter monitoring was performed in all patients at baseline (Days 1-2) and at the end of double-blind treatment (Days 7-9). Vital signs were collected daily.
Safety and efficacy assessments were conducted by measuring patients' vital signs and laboratory parameters; performing TTE to measure, e.g., systolic ejection time; performing electrocardiograms (e.g., 12-lead ECG), real-time ECG telemetry (e.g., at least 3-lead), and Holter ECG; and measuring levels of troponin (e.g., troponin I and/or troponin T) and 4β-hydroxycholesterol.
Abnormal and/or rising troponin values (as per investigator's judgment and taking into account potential baseline troponin elevation frequently observed in heart failure) led to the patient being clinically evaluated for possible myocardial ischemia. […] The entire clinical context (e.g., signs, symptoms, new ECG changes, new troponin, and CK-MB abnormalities) was evaluated and correlated with any other relevant clinical findings, patient's medical history, and laboratory data to determine the clinical significance of the findings. Troponin results performed on Day 2 of Part 1 (SAD) and Day 10 of Part 2 (MAD) at a local lab were reviewed prior to the patient being discharged the next day.

[1] = Cohort A + C 75 mg BID (n = 15)

Cn1cc(S(=O)(=O)[C@@](C)(F)C2CCN(C(=O)Nc3ccon3)CC2)c(C(F)F)n1 [Compound I, (R)-4-(1-((3-(difluoromethyl)-1-methyl-1H-pyrazol-4-yl)sulfonyl)-1-fluoroethyl)-N-(isoxazol-3-yl) piperidine-1-carboxamide]
Number of patients with any AE leading to death [1]: 0
Number of patients with any TEAE [1]: 6
Number of patients with any TEAE leading to permanent treatment discontinuation [1]: 0
Number of patients with any serious TEAE [1]: 1
TEAE Abdominal discomfort, n patients [1]: 0
TEAE Alanine aminotransferase increased, n patients [1]: 1
TEAE Anemia, n patients [1]: 1
TEAE Application site erosion, n patients [1]: 0
TEAE Arthralgia, n patients [1]: 0
TEAE Arthropod bite, n patients [1]: 0
TEAE Back pain, n patients [1]: 0
TEAE Blood creatine phosphokinase increased, n patients [1]: 0
TEAE Blood creatinine increased, n patients [1]: 0
TEAE Cough, n patients [1]: 1
TEAE Dermatitis contact, n patients [1]: 0
TEAE Dry eye, n patients [1]: 0
TEAE Fatigue, n patients [1]: 2
TEAE Fluid overload, n patients [1]: 0
TEAE Gingival pain, n patients [1]: 0
TEAE Hyperkalemia, n patients [1]: 0
TEAE Infusion site erythema, n patients [1]: 0
TEAE Nasopharyngitis, n patients [1]: 0
TEAE Rash, n patients [1]: 0
TEAE Renal failure, n patients [1]: 0
TEAE Renal impairment, n patients [1]: 0
TEAE Testicular pain, n patients [1]: 0
TEAE Troponin increased, n patients [1]: 1
TEAE Ventricular tachycardia, n patients [1]: 0
Number of patients with any AE leading to death (Cohort B 50 mg BID (n = 9)): 0
Number of patients with any TEAE (Cohort B 50 mg BID (n = 9)): 7
Number of patients with any TEAE leading to permanent treatment discontinuation (Cohort B 50 mg BID (n = 9)): 0
Number of patients with any serious TEAE (Cohort B 50 mg BID (n = 9)): 0
TEAE Abdominal discomfort, n patients (Cohort B 50 mg BID (n = 9)): 1
TEAE Alanine aminotransferase increased, n patients (Cohort B 50 mg BID (n = 9)): 1
TEAE Anemia, n patients (Cohort B 50 mg BID (n = 9)): 0
TEAE Application site erosion, n patients (Cohort B 50 mg BID (n = 9)): 1
TEAE Arthralgia, n patients (Cohort B 50 mg BID (n = 9)): 0
TEAE Arthropod bite, n patients (Cohort B 50 mg BID (n = 9)): 0
TEAE Back pain, n patients (Cohort B 50 mg BID (n = 9)): 0
TEAE Blood creatine phosphokinase increased, n patients (Cohort B 50 mg BID (n = 9)): 1
TEAE Blood creatinine increased, n patients (Cohort B 50 mg BID (n = 9)): 0
TEAE Cough, n patients (Cohort B 50 mg BID (n = 9)): 0
TEAE Dermatitis contact, n patients (Cohort B 50 mg BID (n = 9)): 2
TEAE Dry eye, n patients (Cohort B 50 mg BID (n = 9)): 0
TEAE Fatigue, n patients (Cohort B 50 mg BID (n = 9)): 0
TEAE Fluid overload, n patients (Cohort B 50 mg BID (n = 9)): 1
TEAE Gingival pain, n patients (Cohort B 50 mg BID (n = 9)): 0
TEAE Hyperkalemia, n patients (Cohort B 50 mg BID (n = 9)): 1
TEAE Infusion site erythema, n patients (Cohort B 50 mg BID (n = 9)): 1
TEAE Nasopharyngitis, n patients (Cohort B 50 mg BID (n = 9)): 0
TEAE Rash, n patients (Cohort B 50 mg BID (n = 9)): 1
TEAE Renal failure, n patients (Cohort B 50 mg BID (n = 9)): 0
TEAE Renal impairment, n patients (Cohort B 50 mg BID (n = 9)): 0
TEAE Testicular pain, n patients (Cohort B 50 mg BID (n = 9)): 0
TEAE Troponin increased, n patients (Cohort B 50 mg BID (n = 9)): 0
TEAE Ventricular tachycardia, n patients (Cohort B 50 mg BID (n = 9)): 1
Number of patients with any AE leading to death (Cohort D 100 mg BID (n = 6)): 0
Number of patients with any TEAE (Cohort D 100 mg BID (n = 6)): 4
Number of patients with any TEAE leading to permanent treatment discontinuation (Cohort D 100 mg BID (n = 6)): 0
Number of patients with any serious TEAE (Cohort D 100 mg BID (n = 6)): 0
TEAE Abdominal discomfort, n patients (Cohort D 100 mg BID (n = 6)): 0
TEAE Alanine aminotransferase increased, n patients (Cohort D 100 mg BID (n = 6)): 0
TEAE Anemia, n patients (Cohort D 100 mg BID (n = 6)): 0
TEAE Application site erosion, n patients (Cohort D 100 mg BID (n = 6)): 0
TEAE Arthralgia, n patients (Cohort D 100 mg BID (n = 6)): 0
TEAE Arthropod bite, n patients (Cohort D 100 mg BID (n = 6)): 1
TEAE Back pain, n patients (Cohort D 100 mg BID (n = 6)): 0
TEAE Blood creatine phosphokinase increased, n patients (Cohort D 100 mg BID (n = 6)): 0
TEAE Blood creatinine increased, n patients (Cohort D 100 mg BID (n = 6)): 1
TEAE Cough, n patients (Cohort D 100 mg BID (n = 6)): 0
TEAE Dermatitis contact, n patients (Cohort D 100 mg BID (n = 6)): 0
TEAE Dry eye, n patients (Cohort D 100 mg BID (n = 6)): 0
TEAE Fatigue, n patients (Cohort D 100 mg BID (n = 6)): 0
TEAE Fluid overload, n patients (Cohort D 100 mg BID (n = 6)): 0
TEAE Gingival pain, n patients (Cohort D 100 mg BID (n = 6)): 1
TEAE Hyperkalemia, n patients (Cohort D 100 mg BID (n = 6)): 0
TEAE Infusion site erythema, n patients (Cohort D 100 mg BID (n = 6)): 0
TEAE Nasopharyngitis, n patients (Cohort D 100 mg BID (n = 6)): 0
TEAE Rash, n patients (Cohort D 100 mg BID (n = 6)): 0
TEAE Renal failure, n patients (Cohort D 100 mg BID (n = 6)): 0
TEAE Renal impairment, n patients (Cohort D 100 mg BID (n = 6)): 0
TEAE Testicular pain, n patients (Cohort D 100 mg BID (n = 6)): 0
TEAE Troponin increased, n patients (Cohort D 100 mg BID (n = 6)): 1
TEAE Ventricular tachycardia, n patients (Cohort D 100 mg BID (n = 6)): 1
QTc (MAD cohorts): No increase in QTc
patients with TEAEs (MAD cohorts, Compound I patients): 17 (57%) n (%)
patients with transient and asymptomatic increase in troponin I or hs-troponin T (MAD cohorts, all doses): 7 (23%) n (%)
Number of patients with any AE leading to death (Total Compound I (n = 30)): 0
Number of patients with any TEAE (Total Compound I (n = 30)): 17
Number of patients with any TEAE leading to permanent treatment discontinuation (Total Compound I (n = 30)): 0
Number of patients with any serious TEAE (Total Compound I (n = 30)): 1
TEAE Abdominal discomfort, n patients (Total Compound I (n = 30)): 1
TEAE Alanine aminotransferase increased, n patients (Total Compound I (n = 30)): 2
TEAE Anemia, n patients (Total Compound I (n = 30)): 1
TEAE Application site erosion, n patients (Total Compound I (n = 30)): 1
TEAE Arthralgia, n patients (Total Compound I (n = 30)): 0
TEAE Arthropod bite, n patients (Total Compound I (n = 30)): 1
TEAE Back pain, n patients (Total Compound I (n = 30)): 0
TEAE Blood creatine phosphokinase increased, n patients (Total Compound I (n = 30)): 1
TEAE Blood creatinine increased, n patients (Total Compound I (n = 30)): 1
TEAE Cough, n patients (Total Compound I (n = 30)): 1
TEAE Dermatitis contact, n patients (Total Compound I (n = 30)): 2
TEAE Dry eye, n patients (Total Compound I (n = 30)): 0
TEAE Fatigue, n patients (Total Compound I (n = 30)): 2
TEAE Fluid overload, n patients (Total Compound I (n = 30)): 1
TEAE Gingival pain, n patients (Total Compound I (n = 30)): 1
TEAE Hyperkalemia, n patients (Total Compound I (n = 30)): 1
TEAE Infusion site erythema, n patients (Total Compound I (n = 30)): 1
TEAE Nasopharyngitis, n patients (Total Compound I (n = 30)): 0
TEAE Rash, n patients (Total Compound I (n = 30)): 1
TEAE Renal failure, n patients (Total Compound I (n = 30)): 0
TEAE Renal impairment, n patients (Total Compound I (n = 30)): 0
TEAE Testicular pain, n patients (Total Compound I (n = 30)): 0
TEAE Troponin increased, n patients (Total Compound I (n = 30)): 2
TEAE Ventricular tachycardia, n patients (Total Compound I (n = 30)): 2
ventricular arrhythmias (Holter monitoring) (compared with placebo): no increase in ventricular arrhythmias
systolic blood pressure (higher concentration group): decrease
serious AE, one patient (not considered related to study treatment): hyperkalemia
